{
  "source": "ChEMBL document CHEMBL1150839",
  "about": "“Dihydroagarofuran sesquiterpene alkaloids from Maytenus putterlickoides” (J Nat Prod, 2001)",
  "key": {"[1]": {"system": "Artemia", "test": "Toxicity in brine shrimp", "format": "organism-based", "details": "in vivo"}, "[2]": {"test": "Inhibition of PKC"}},
  "note": "Activity calls are given as the source filed them. The rule behind the calls is not given here.",
  "data": [
    {"smiles": "CC(=O)OC[C@]12[C@H](O)[C@H](OC(=O)c3cccnc3)[C@@H]3[C@@H](OC(C)=O)[C@@]14O[C@@]3(C)COC(=O)c1cccnc1[C@@H](C)[C@H](C)C(=O)O[C@@H]([C@H](OC(C)=O)[C@@H]2OC(C)=O)[C@]4(C)O", "note": "[PUTTERINE A]", "values": [
      {"measurement": "Activity", "setting": "[1]", "result": "Toxic"},
      {"measurement": "inhibition", "setting": "[2]", "result": "inactive"}
    ]},
    {"smiles": "CC(=O)OC[C@]12[C@H](O)[C@H](OC(=O)c3cccnc3)[C@@H]3[C@@H](OC(C)=O)[C@@]14O[C@@]3(C)COC(=O)c1cccnc1[C@@H](C)[C@H](C)C(=O)O[C@@H]([C@H](OC(=O)C(C)C)[C@@H]2OC(C)=O)[C@]4(C)O", "note": "[PUTTERINE B]", "values": [
      {"measurement": "Activity", "setting": "[1]", "result": "Toxic"},
      {"measurement": "inhibition", "setting": "[2]", "result": "inactive"}
    ]}
  ]
}
